PMC9779606, “Synthesis, Structural Characterization and Biological Activity Evaluation of Novel Cu(II) Complexes with 3-(trifluoromethyl)phenylthiourea Derivatives” (International Journal of Molecular Sciences, 2022)

Assays:
M. tuberculosis H37Rv = assay: Tuberculostatic activity, Microplate Alamar Blue Assay (MABA); type: cell-based, Mycobacterium tuberculosis; settings: M. tuberculosis H37Rv, standard strain, MABA
[1] = test system: M. tuberculosis Spec. 192; assay: as above; type: cell-based, Mycobacterium tuberculosis; settings: M. tuberculosis Spec. 192, patient isolate fully sensitive to tuberculostatics, MABA
[2] = test system: HaCaT (immortalized human keratinocytes); assay: Cytotoxicity, MTT assay; type: cell-based; settings: normal cells, 72 h, mean SD
Description: MTT assay was performed as previously described. Experiments were repeated three times. […] Decreased relative MTT level means decreased cell viability.

[3] = test system: Bacillus subtilis H17 (rec+); settings: B. subtilis H17 (rec+); 256 µg per 9 mm disc (NOQ 2 µg per disc)
Description: (§1) DNA-damaging activity of compounds was tested by rec-assay using two genetically modified Bacillus subtilis strains: M45 (rec^−) and H17 (rec^+). Tested compounds were dissolved in DMSO, and 10 µL of each solution was dripped onto sterile cotton discs (Rotilabo) to load 256 µg of a given compound per 9 mm disc. Discs were placed on the surface Nutrient agar plates (Difco) inoculated with 100 µL of bacterial overnight culture and incubated for 24 h at 35 °C. After incubation, the growth inhibition zones were measured. […] Results of the genotoxicity test were estimated after 18 h of incubation at 35 °C by comparing the diameter of the inhibition zone on the B. subtilis M45 (rec^−) strain with that on the B. subtilis H17 (rec^+) strain.

[4] = test system: Bacillus subtilis M45 (rec−); settings: B. subtilis M45 (rec−); 256 µg per 9 mm disc (NOQ 2 µg per disc)
Description: as §1

S. aureus 498 = assay: MIC, hospital methicillin-resistant strains (MRSA); settings: hospital MRSA strain S. aureus 498
S. aureus 537 = assay: MIC, hospital methicillin-resistant strains (MRSA); settings: hospital MRSA strain S. aureus 537
S. aureus 567 = assay: MIC, hospital methicillin-resistant strains (MRSA); settings: hospital MRSA strain S. aureus 567
S. aureus 585 = assay: MIC, hospital methicillin-resistant strains (MRSA); settings: hospital MRSA strain S. aureus 585
S. aureus NCTC 4163 = assay: MIC, twofold serial microdilution, standard strains; settings: S. aureus NCTC 4163, standard strain
S. aureus 586 = assay: MIC, hospital methicillin-resistant strains (MRSA); settings: hospital MRSA strain S. aureus 586
S. aureus 495 = assay: MIC, hospital methicillin-resistant strains (MRSA); settings: hospital MRSA strain S. aureus 495
S. aureus 514 = assay: MIC, hospital methicillin-resistant strains (MRSA); settings: hospital MRSA strain S. aureus 514
S. aureus 572 = assay: MIC, hospital methicillin-resistant strains (MRSA); settings: hospital MRSA strain S. aureus 572
S. aureus 481 = assay: MIC, hospital methicillin-resistant strains (MRSA); settings: hospital MRSA strain S. aureus 481
S. epidermidis 420 = assay: MIC, hospital methicillin-resistant strains (MRSE); settings: hospital MRSE strain S. epidermidis 420
S. epidermidis 423 = assay: MIC, hospital methicillin-resistant strains (MRSE); settings: hospital MRSE strain S. epidermidis 423
S. epidermidis 424 = assay: MIC, hospital methicillin-resistant strains (MRSE); settings: hospital MRSE strain S. epidermidis 424
S. epidermidis 469 = assay: MIC, hospital methicillin-resistant strains (MRSE); settings: hospital MRSE strain S. epidermidis 469
S. epidermidis 515 = assay: MIC, hospital methicillin-resistant strains (MRSE); settings: hospital MRSE strain S. epidermidis 515
S. epidermidis 432 = assay: MIC, hospital methicillin-resistant strains (MRSE); settings: hospital MRSE strain S. epidermidis 432
S. epidermidis 433 = assay: MIC, hospital methicillin-resistant strains (MRSE); settings: hospital MRSE strain S. epidermidis 433
S. epidermidis 435 = assay: MIC, hospital methicillin-resistant strains (MRSE); settings: hospital MRSE strain S. epidermidis 435
S. aureus ATCC 6538 = assay: MIC, twofold serial microdilution, standard strains; settings: S. aureus ATCC 6538, standard strain
S. epidermidis 437 = assay: MIC, hospital methicillin-resistant strains (MRSE); settings: hospital MRSE strain S. epidermidis 437
S. epidermidis 438 = assay: MIC, hospital methicillin-resistant strains (MRSE); settings: hospital MRSE strain S. epidermidis 438
S. epidermidis 513 = assay: MIC, hospital methicillin-resistant strains (MRSE); settings: hospital MRSE strain S. epidermidis 513
S. aureus ATCC 29213 = assay: MIC, twofold serial microdilution, standard strains; settings: S. aureus ATCC 29213, standard strain
[5] = test system: S. epidermidis ATCC 12228; assay: as above; settings: S. epidermidis ATCC 12228, standard strain
[6] = test system: S. epidermidis ATCC 35984; assay: as above; settings: S. epidermidis ATCC 35984, standard strain
P. aeruginosa ATCC 15442 = assay: as above; settings: P. aeruginosa ATCC 15442, standard strain

Structure (SMILES): CC(NC(=S)[N-]c1cccc(C(F)(F)F)c1)c1ccccc1.CC(NC(=S)[N-]c1cccc(C(F)(F)F)c1)c1ccccc1.[Cu+2] (racemic) [Cu2, Copper(II) Complex with 1-(1-phenylethyl)-3-[3-(trifluoromethyl)phenyl]thiourea]
- MIC (M. tuberculosis H37Rv): 8 µg/mL
- MIC [1]: 8 µg/mL
- IC50 [2]: 220 ± 3.4 µM
- Genotoxic activity, inhibition zone diameter, H17 [3]: 16 mm
- Genotoxic activity, inhibition zone diameter, M45 [4]: 16 mm
- MIC (S. aureus 498): 8 µg/mL
- MIC (S. aureus 537): 8 µg/mL
- MIC (S. aureus 567): 8 µg/mL
- MIC (S. aureus 585): 8 µg/mL
- MIC (S. aureus NCTC 4163): 32 µg/mL
- MIC (S. aureus 586): 8 µg/mL
- MIC (S. aureus 495): 16 µg/mL
- MIC (S. aureus 514): 16 µg/mL
- MIC (S. aureus 572): 16 µg/mL
- MIC (S. aureus 481): 16 µg/mL
- MIC (S. epidermidis 420): 16 µg/mL
- MIC (S. epidermidis 423): 16 µg/mL
- MIC (S. epidermidis 424): 16 µg/mL
- MIC (S. epidermidis 469): 32 µg/mL
- MIC (S. epidermidis 515): 16 µg/mL
- MIC (S. epidermidis 432): 16 µg/mL
- MIC (S. epidermidis 433): 16 µg/mL
- MIC (S. epidermidis 435): 16 µg/mL
- MIC (S. aureus ATCC 6538): 32 µg/mL
- MIC (S. epidermidis 437): 16 µg/mL
- MIC (S. epidermidis 438): 16 µg/mL
- MIC (S. epidermidis 513): 16 µg/mL
- MIC (S. aureus ATCC 29213): 32 µg/mL
- MIC [5]: 32 µg/mL
- MIC [6]: 16 µg/mL
- MIC (P. aeruginosa ATCC 15442): 128 µg/mL

Structure (SMILES): FC(F)(F)c1cccc([N-]C(=S)NCCc2ccccc2)c1.FC(F)(F)c1cccc([N-]C(=S)NCCc2ccccc2)c1.O.[Cu+2] [Cu1, Copper(II) Complex with 1-(2-phenylethyl)-3-[3-(trifluoromethyl)phenyl]thiourea]
- MIC (M. tuberculosis H37Rv): 16 µg/mL
- MIC [1]: 16 µg/mL
- IC50 [2]: 421 ± 5.2 µM
- Genotoxic activity, inhibition zone diameter, H17 [3]: 16 mm
- Genotoxic activity, inhibition zone diameter, M45 [4]: 16 mm
- MIC (S. aureus 498): 64 µg/mL
- MIC (S. aureus 537): 64 µg/mL
- MIC (S. aureus 567): 64 µg/mL
- MIC (S. aureus 585): 64 µg/mL
- MIC (S. aureus NCTC 4163): 64 µg/mL
- MIC (S. aureus 586): 64 µg/mL
- MIC (S. aureus 495): 64 µg/mL
- MIC (S. aureus 514): 64 µg/mL
- MIC (S. aureus 572): 64 µg/mL
- MIC (S. aureus 481): 64 µg/mL
- MIC (S. epidermidis 420): 64 µg/mL
- MIC (S. epidermidis 423): 64 µg/mL
- MIC (S. epidermidis 424): 128 µg/mL
- MIC (S. epidermidis 469): 64 µg/mL
- MIC (S. epidermidis 515): 128 µg/mL
- MIC (S. epidermidis 432): 64 µg/mL
- MIC (S. epidermidis 433): 64 µg/mL
- MIC (S. epidermidis 435): 64 µg/mL
- MIC (S. aureus ATCC 6538): 64 µg/mL
- MIC (S. epidermidis 437): 64 µg/mL
- MIC (S. epidermidis 438): 128 µg/mL
- MIC (S. epidermidis 513): 64 µg/mL
- MIC (S. aureus ATCC 29213): 64 µg/mL
- MIC [5]: 64 µg/mL
- MIC [6]: 64 µg/mL
- MIC (P. aeruginosa ATCC 15442): 128 µg/mL

Structure (SMILES): FC(F)(F)c1cccc([N-]C(=S)NCc2ccccc2)c1.FC(F)(F)c1cccc([N-]C(=S)NCc2ccccc2)c1.[Cu+2] [Cu3, Copper(II) Complex with 1-benzyl-3-[3-(trifluoromethyl)phenyl]thiourea]
- MIC (M. tuberculosis H37Rv): 16 µg/mL
- MIC [1]: 16 µg/mL
- IC50 [2]: 65 ± 4.7 µM
- Genotoxic activity, inhibition zone diameter, H17 [3]: 15 mm
- Genotoxic activity, inhibition zone diameter, M45 [4]: 15 mm
- MIC (S. aureus 498): 64 µg/mL
- MIC (S. aureus 537): 64 µg/mL
- MIC (S. aureus 567): 64 µg/mL
- MIC (S. aureus 585): 64 µg/mL
- MIC (S. aureus NCTC 4163): 64 µg/mL
- MIC (S. aureus 586): 64 µg/mL
- MIC (S. aureus 495): 64 µg/mL
- MIC (S. aureus 514): 64 µg/mL
- MIC (S. aureus 572): 64 µg/mL
- MIC (S. aureus 481): 64 µg/mL
- MIC (S. epidermidis 420): 64 µg/mL
- MIC (S. epidermidis 423): 64 µg/mL
- MIC (S. epidermidis 424): 64 µg/mL
- MIC (S. epidermidis 469): 64 µg/mL
- MIC (S. epidermidis 515): 64 µg/mL
- MIC (S. epidermidis 432): 64 µg/mL
- MIC (S. epidermidis 433): 64 µg/mL
- MIC (S. epidermidis 435): 64 µg/mL
- MIC (S. aureus ATCC 6538): 64 µg/mL
- MIC (S. epidermidis 437): 64 µg/mL
- MIC (S. epidermidis 438): 64 µg/mL
- MIC (S. epidermidis 513): 64 µg/mL
- MIC (S. aureus ATCC 29213): 64 µg/mL
- MIC [5]: 64 µg/mL
- MIC [6]: 64 µg/mL
- MIC (P. aeruginosa ATCC 15442): ≥256 µg/mL
